Where a SMILES comes first, the peptide text is derived from it. Bridges are numbered along the chain shown (N, C = ends).
Experiments:
[1] = molecular target: intestinal epithelial cells from wild-type and GC-C KO mice (Mus musculus, UniProt Q3UWA6); settings: 125I-SEQ ID NO:3 alone or with excess unlabeled SEQ ID NO:3, FIG. 9b
Method: Mouse intestinal epithelial cells were prepared identical to that above as for rat intestinal epithelial cells except the cells were homogenized with an Omni homogenizer for 20 seconds on the maximum setting to make a suspension of cells. A competition binding assay was performed identical to that described above between ^125I labeled SEQ ID NO:3 and unlabeled SEQ ID NO:3 (competitor).

CD rats = test: rat gastrointestinal transit assay; format: in vivo
Method: The gastrointestinal transit assay was also performed in male and female CD rats (Charles River; Wilmington, Mass.) weighing between 136-191 g with an average weight of 167.6 g. The assay was performed as described above for mice except an average of 5-8 animals were used for each test group and test peptide and 5% activated carbon were administered simultaneously (versus 7 minutes apart). In addition, the animals were sacrificed 10 minutes after the administration of peptide and test compound.

[2] = system: wild-type or GC-C KO mice; settings: 5 μg into loop, FIG. 17a
Method: The effect of SEQ ID NO:3 on cGMP levels and secretion were studied by injecting SEQ ID NO:3 directly into an isolated loop in either wild-type or GC-C KO mice. This was done by surgically ligating a loop in the small intestine of the mouse. […] The loop was roughly centered and was a length of 1-3 cm. The loops were injected with 100 μl of either SEQ ID NO:3 (5 μg) or vehicle (20 mM Tris, pH 7.5 or Krebs Ringer, 10 mM Glucose, HEPES buffer (KRGH)). Following a recovery time of 90 minutes the loops were excised. Weights were recorded for each loop before and after removal of the fluid contained therein. The length of each loop was also recorded. A weight to length ratio (W/L) for each loop was calculated to determine the effects of SEQ ID NO:3 on secretion.
To determine the effect of SEQ ID NO:3 on cGMP activity, fluid from the loop was collected in ice-cold trichloracetic acid (TCA) and stored at −80° C. for use in an assay to measure cGMP levels in the fluid. Intestinal fluid samples were TCA extracted, and cyclic GMP was measured by EIA according to procedures outlined in the Cayman Chemical Cyclic GMP EIA kit (Cayman Chemical, Ann Arbor, Mich.) to determine cyclic GMP levels in the intestinal fluid of the mouse in the presence of either SEQ ID NO:3 or vehicle.

mouse = test: phenylbenzoquinone (PBQ)-induced writhing model; settings: oral; SEQ ID NO:5 1 mg/kg, SEQ ID NO:3 2.5 mg/kg; versus vehicle control, FIGS. 8a, 8b
[3] = absorbability study in mice, ELISA detection; format: in vivo; settings: CD1, mouse, serum, IV and oral, FIG. 10a, read-out: bioavailable
Method: To study the pharmacokinetics of SEQ ID NO:3, absorbability studies in mice were performed by administering SEQ ID NO:3 intravaneously via tail vein injection or orally by gavage to 8-week-old CD1 mice. Serum was collected from the animals at various time points and tested for the presence of SEQ ID NO:3 using a competitive enzyme-linked immunoabsorbent assay (Oxoid, ST EIA kit, Cat#TD0700). The assay utilized monoclonal antibodies against ST peptide (antibodies are provided in the Oxoid kit) and synthetically manufactured SEQ ID NO:3.

female Wistar rats = test: partial restraint stress-induced hyperalgesia model; format: in vivo, rat; settings: oral 0.3 and 3.0 μg/kg, distending pressure 15 mm Hg, p<0.0001, FIG. 7b
Method: Five groups of female Wistar rats (weighing 200-250 g each), were surgically prepared for electromyography as described (Morteau et al. 1994 Dig Dis Sci 39:1239-48) and were used to evaluate the effects of SEQ ID NO:3 on colorectal sensitivity and compliance after a 2 hour partial restraint stress session. Partial restraint stress (PRS), a relatively mild stress, was induced as previously described (Morteau et al. 1994 Dig Dis Sci 39:1239-48). Female rats were lightly anesthetized with diethyl ether and their shoulders, upper forelimbs and thoracic trunk were wrapped in a confining harness of paper tape to restrict, but not prevent body movements. Control sham-stress animals were anesthetized but not wrapped. […] Electrical activity was recorded with an electroencephalograph (Mini VIII, Alvar, Paris, France) using a short time constant (0.03 sec.) to remove low-frequency signals (<3 Hz) and a paper speed of 3.6 cm/minute. […] Colonic pressure and balloon volume were continuously monitored on a potentiometric recorder (L6514, Linseis, Selb, Germany) with a paper speed of 1.0 cm/minute. The number of spike bursts, corresponding to abdominal contractions, was evaluated per 5-minute period. Colorectal volumes were determined as the maximal volume obtained for each stage of distension using the potentiometric recorder. […] The values were expressed as mean±SEM.

Sequence of intestinal epithelial cells from wild-type and GC-C KO mice (Q3UWA6 20-1072): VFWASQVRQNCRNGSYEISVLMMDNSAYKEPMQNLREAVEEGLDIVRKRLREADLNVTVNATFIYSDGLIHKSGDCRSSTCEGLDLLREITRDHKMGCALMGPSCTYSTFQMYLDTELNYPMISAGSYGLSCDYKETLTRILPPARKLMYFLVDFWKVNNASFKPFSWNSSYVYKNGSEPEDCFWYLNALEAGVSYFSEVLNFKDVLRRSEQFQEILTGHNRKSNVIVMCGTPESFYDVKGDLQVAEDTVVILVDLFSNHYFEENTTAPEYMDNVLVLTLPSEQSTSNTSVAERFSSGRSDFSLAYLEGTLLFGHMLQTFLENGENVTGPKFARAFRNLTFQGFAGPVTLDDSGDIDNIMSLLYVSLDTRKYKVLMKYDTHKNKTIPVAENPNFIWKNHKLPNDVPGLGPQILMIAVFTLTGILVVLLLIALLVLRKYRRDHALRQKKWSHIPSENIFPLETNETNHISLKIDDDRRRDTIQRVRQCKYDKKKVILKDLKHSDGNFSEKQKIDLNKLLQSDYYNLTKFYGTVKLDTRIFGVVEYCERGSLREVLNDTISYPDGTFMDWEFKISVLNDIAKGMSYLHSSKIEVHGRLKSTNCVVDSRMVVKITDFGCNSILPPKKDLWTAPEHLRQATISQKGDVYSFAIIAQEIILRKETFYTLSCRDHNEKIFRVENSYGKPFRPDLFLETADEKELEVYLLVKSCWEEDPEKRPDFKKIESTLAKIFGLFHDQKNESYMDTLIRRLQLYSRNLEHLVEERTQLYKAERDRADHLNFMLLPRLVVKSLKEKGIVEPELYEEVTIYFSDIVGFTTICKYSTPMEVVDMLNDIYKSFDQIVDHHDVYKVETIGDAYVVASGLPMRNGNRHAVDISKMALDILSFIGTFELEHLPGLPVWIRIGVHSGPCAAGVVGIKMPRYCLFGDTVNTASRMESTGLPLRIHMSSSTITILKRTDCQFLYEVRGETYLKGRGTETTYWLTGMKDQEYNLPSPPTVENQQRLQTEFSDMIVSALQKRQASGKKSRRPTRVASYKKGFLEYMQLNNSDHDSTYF

SMILES: C[C@@H]1NC(=O)[C@@H]2CCCN2C(=O)[C@H](CC(N)=O)NC(=O)[C@@H]2CSSC[C@H](N)C(=O)N[C@H]3CSSC[C@H](NC1=O)C(=O)N[C@@H]([C@@H](C)O)C(=O)NCC(=O)N[C@H](C(=O)N[C@@H](Cc1ccc(O)cc1)C(=O)O)CSSC[C@H](NC(=O)[C@H](Cc1ccc(O)cc1)NC(=O)[C@H](CCC(=O)O)NC3=O)C(=O)N2 [SEQ ID NO:3] (H-CCEYCCNPACTGCY-OH; disulfide 1-6, 2-10, 5-13; N-terminus and C-terminus assumed)
- binding to intestinal epithelial cells, GC-C KO compared to wild-type mice [1]: reduction in SEQ ID NO:3 binding
- intestinal transit, dose dependence (CD rats; female rats, FIG. 4e): increases in a dose dependent manner
- intestinal transit (CD rats; rat GIT assay, FIG. 4d): intestinal transit increases
- cGMP activity in ligated loop fluid [2]: no effect
- secretion (loop weight to length ratio) [2]: no effect
- writhings (mouse): Significant reductions in writhings
- bioavailability [3]: < 2.2%
- response to CRD after partial restraint stress (female Wistar rats): reduced the response to CRD after PRS

— patent US20090305993A1, “METHODS AND COMPOSITION FOR THE TREATMENT OF GASTROINTESTINAL DISORDERS” (IRONWOOD PHARMACEUTICALS, INC., priority 2006, published 2009)
